Reference: US5646149A, “Compounds having both potent calcium antagonist and antioxidant activity and use thereof as cytoprotective agents” (Alcon Laboratories, Inc., priority 1995, dated 1997)
Where two headings read alike, the source gives them in different places.

How the values were obtained:
[1] = DPPH free radical scavenging assay; settings: 30 min
Protocol: (§1) The DPPH assay is a chemical assay used to determine free radical scavenging activity. The retinal pieces, liver microsomes and phospholipid oxidation models measure antioxidant activity. The calcium binding assay is a measure of the affinity of the compound for a calcium antagonist binding site. The test procedures are described in greater detail below.
Free radical scavenging activity was determined by measuring the test compound's ability to quench a ethanol solution of the free radical dye, 1,1-diphenyl-2-picrylhydrazyl, (DPPH). Test agents were dissolved in 95% ethanol and were added to a solution of DPPH in 95% ethanol. The final concentration of both the test compound and DPPH was 0.4 mMol. Absorbance was continuously recorded on a Perkin-Elmer Lamba 4B spectrophotometer. The percent quench was measured thirty minutes following the combination of the two solutions. (Free Rad. Res. Comms., volume 15, pages 91-100 (1991)).

Liver Microsomes = test: Liver microsome lipid peroxidation assay; format: biochemical
Protocol: as §1
Antioxidant activity was also measured using a liver microsome assay (Chem. Biol. Interactions., volume 74, pages 233-52, (1990)). Microsomes were incubated in a KPi buffer. Lipid oxidation was initiated with ADP(1 mM)/FeCl3 (10 μM) and NADPH regenerating system, containing NADP^+. The lipid peroxidation was assayed by the TBA test. Malondialdehyde (MDA) was estimated by the formation of thiobarbituric acid-reactive substances. MDA-equivalents were calculated using ε=156 mM^- cm^-1. IC50S were calculated using regression lines.

Singlet oxygen quenching = test: Singlet oxygen quenching; parameters: key: IA: inactive; settings: 37° C., ethanol/chloroform (50:50), 5 mM NDPO2
Protocol: The singlet oxygen quenching activity was studied in the following manner. Singlet oxygen was generated chemically by using thermodissociation of the endoperoxide 3,3'-(1,4-naphthylidene dipropionate), NPDO2. At 37° C., 3 ml ethanol/chloroform (50:50) were placed in a thermosrated cuvette. Reactions were started by injection of 5 mM NDPO2. The singlet oxygen quenching constants were calculated according to Stern-Volmer plots, from S0 /S=1+(Kq+KR)*[Q}*I, where S0, S--chemiluminesence (1270 nm) intensities in absence and in the presence of quenchers, respectively, [Q} is the quencher concentration and I is the lifetime of singlet oxygen (see J. Amer. Chem., volume 111, pages 2904-2914, (1989)).

bovine retinal pieces = test: Cytoprotection / lipid peroxidation (TBARS) in bovine retinal pieces after hypoxia-reoxygenation; format: cell-based
Protocol: The DPPH assay is a chemical assay used to determine free radical scavenging activity. The retinal pieces, liver microsomes and phospholipid oxidation models measure antioxidant activity. The calcium binding assay is a measure of the affinity of the compound for a calcium antagonist binding site. The test procedures are described in greater detail below. The cytoprotective effects of the compounds were measured using bovine retinal pieces. […] After 50 minutes of hypoxia, test agents were added to the media to allow 10 minutes for the drug to diffuse into the tissue prior to reoxygenation. Vehicle was added to the non-drug group. Following the incubation period, the tissue was reoxygenated for 1 h. Lipid peroxidation was assessed by the formation of thiobarbituric acid reacting substances (TBARS). The tissues were homogenized and added to TCA-TBA reagent and heated in the presence of BHT. The homogenate was filtered and the absorbance of the supernatant was measured spectrophotometrically. A double derivative technique was used to calculate the concentration of TBARS present in each sample. Quantitation was based on molar extinction coefficient of 1.56×10^5.

[2] = Phospholipid oxidation assay in liposomes; format: biochemical
Protocol: as §1
Antioxidant activity was measured using a phospholipid oxidation assay. Liposomes formed from dilineoleolyl phosphocholine were exposed to Fe^+3 /EDTA (167 μM) and ascorbate (167 μM). Oxidation was measured by conjugate diene formation monitored using UV spectroscopy (Biochim. Biophys. Acta., volume 1081, pages 181-187, (1991)). The IC50 was calculated using the following non-linear regression algorithm: Y=A/[1+(B/X)^c ], wherein A=maximum, B=IC50 and c=cooperativity or relative broadness of the curves. The minimum was assumed to be zero.

retinal function of rats = test: Ocular function by electroretinography after light exposure; format: in vivo, rat; settings: ERG a-wave and b-wave after 48 h light exposure
Protocol: (§2) The retinoprotective properties of the compounds were measured in a light damage model. Photochemical lesions were induced in free moving unanesthetized albino rats by a single 48 h continuous broad-band florescent visible-light exposure. The rats were dosed by intraperitoneal injection 48 and 24 h prior to exposure, every 24 h during the exposure and once during the 24 h recovery period. Ocular tissues were obtained 24 h after light exposure. The tissues were analyzed using a quantitative computer image analyses system attached to the microscope. Retinal layer thickness, number of macrophages in the subretinal space, number of pyknotic nuclei in the outer nuclear layer, and retinal layer areas were parameters that were measured and statistically analyzed.
Ocular function was measured using electroretinography. Rats were anesthetized after a four-day recovery period in the dark. Flash ERGs were elicited by viewing a ganzfield. Electrical responses to a series of light flashes increasing in intensity were digitized to analyze response voltage-log intensity relationships.
Retinal function was assessed by measuring the electroretinogram after 48 h light exposure. The ERG allows differential examination of photoreceptor activity (a-wave) and inner nuclear layer function (b-wave) which is correlated to retinal morphology change.

[3] = target: calcium antagonist binding site; test: Calcium binding, radioligand (nitrendipine) binding assay in rat brain cortices; settings: radiolabeled nitrendipine
Protocol: as §1
Calcium binding was measured using a radioligand binding assay. Brain cortices were removed from rats and a membrane fraction was prepared by standard techniques. The membrane preparation was incubated with radiolabeled nitrendipine. Non-specific binding was estimated in the presence of non-labeled nitrendipine. Membranes were filtered and washed and the filters were counted to determine radiolabelled […] Acad. Sci. USA, volume 79, pages 3656-3660 (1982), Life Sci., volume 30, pages 2191-2202, (1982).

retina of albino rats = test: Retinal light damage model (photochemical lesions, histology); format: in vivo, rat; settings: intraperitoneal, 48 h light exposure
Protocol: as §2
Control rats remaining on their normal 12 h light/12 h dark light cycle were devoid of retinal lesions upon microscopic examination and were assessed to have normal retinal function. […] The number of pyknotic photoreceptor nuclei was reduced by 50% in the outer nuclear layer compared to non-dosed animals.

[4] = value from Free Rad. Res. Comms., volume 15, pages 91-100 (1991); cited from earlier work
[5] = Summary of Activity table, test compound and DPPH 0.4 mMol
[6] = test compound and DPPH 0.4 mMol in 95% ethanol, thirty minutes
[7] = ADP (1 mM)/FeCl3 (10 μM), NADPH regenerating system, TBA test
[8] = Bos taurus, Summary of Activity table, bovine retinal pieces
[9] = Fe^+3/EDTA (167 μM) and ascorbate (167 μM), conjugate diene formation, read-out: Phospholipid Oxidation IC50
[10] = Summary of Activity table, read-out: Phosopholipid Oxidation IC50
[11] = Summary of Activity table, rat brain cortices, read-out: Ca+2 Binding IC50
[12] = rat brain cortices membrane, read-out: Ca^+2 Binding IC50

Row | Structure (SMILES) | DPPH (% Quench) [1, 5] [%] | DPPH (% Quench) [1, 6] [%] | IC50 (Liver Microsomes; [7]) [nM] | IC50 (Liver Microsomes; Summary of Activity table) [nM] | Singlet Oxygen Quenching Kq (Singlet oxygen quenching) | IC50 (bovine retinal pieces; [8]) [nM] | IC50 [2, 9] [nM] | IC50 [2, 10] [nM] | preservation of retinal function (electroretinogram) (retinal function of rats) | IC50 [3, 11] [nM] | IC50 [3, 12] [nM] | Damage to photoreceptor cells (retina of albino rats) | RPE damage (retina of albino rats) | outer and inner segment damage (photoreceptor length) (retina of albino rats) | reduction of number of pyknotic photoreceptor nuclei in the outer nuclear layer (retina of albino rats; compared to non-dosed animals) [%] | Macrophages in the subretinal space, compared to control values (retina of albino rats; vs control values) | Macrophages in the subretinal space, compared to non-dosed light exposed rats (retina of albino rats; vs non-dosed light exposed rats) | DPPH (% Quench), literature value [4] [%] | IC50 (bovine retinal pieces; Summary of Activity table, bovine retinal pieces) [nM] | IC50 (bovine retinal pieces; bovine retina, hypoxia 1 h, agent added after 50 minutes, reoxygenation 1 h, TBARS) [nM]
1 | Cc1cc(C(C)(C)C)c(O)c(C(C)(C)C)c1 [BHT] | 64 | 64 | 1100 | 1100 | IA | 500 | 201000 | 201000 |  |  |  |  |  |  |  |  |  |  |  | 
2 | Cc1c(C)c2c(c(C)c1O)CCC(C)(CCN1CCN(C(c3ccc(F)cc3)c3ccc(F)cc3)CC1)O2 (stereo not drawn) [Compound No. 1, 1-(4,4'-difluorobenzhydryl)-4-(6-hydroxy-2,5,7,8-tetramethylchroman-2-ethyl)piperazine] | 99 | 99 | 1000 | 1000 |  | 10 | 3600 | 3600 | Significant preservation of retinal function | 1000 to 10000 | 1000 to 10000 | significantly minimized | greatly reduced | prevented outer and inner segment damage | 50 | not greater than control values | significantly reduced |  |  | 
3 | Cc1c(C)c2c(c(C)c1O)CCC(C)(CN1CCN(C(c3ccc(F)cc3)c3ccc(F)cc3)CC1)O2 (stereo not drawn) [Compound No. 2, 1-(4,4'-difluorobenzhydryl)-4-(6-hydroxy-2,5,6,8-tetramethylchroman-2-methyl)piperazine dimaleate hemihydrate] | 96 | 96 |  |  | 1.6e+08 M⁻¹ s⁻¹ | 50 | 180 |  |  | 1000 to 10000 | 1000 to 10000 |  |  |  |  |  |  |  |  | 
4 | Fc1ccc(C(c2ccc(F)cc2)N2CCN(C/C=C/c3ccccc3)CC2)cc1 [Flunarizine] |  |  | 27100 | 27100 | 5e+06 M⁻¹ s⁻¹ |  |  |  |  |  |  |  |  |  |  |  |  | 10 |  | 
5 | Cc1c(C)c2c(c(C)c1O)CC[C@@](C)(CCC[C@H](C)CCC[C@H](C)CCCC(C)C)O2 [Vitamin E, α-tocopherol] | 87 | 87 | 37000 | 37000 | 1.2e+08 M⁻¹ s⁻¹ |  | 4200 | 4200 |  |  |  |  |  |  |  |  |  | 90 | 1 | 1
